According to paper PMC5342262, “Synthesis, in vitro and in vivo evaluation of 3β-[^18F]fluorocholic acid for the detection of drug-induced cholestasis in mice” (PLoS ONE, 2017):
Values joined by “and” are separate entries in the source; they are usually repeats but may differ in a detail not shown here. Identical values can stand only once. “Also recorded” adds a separate entry of the source.

Legend:
[1] = Dynamic PET of [^18F]FCA in wild-type FVB mice; format: in vivo
Procedure: Food and water was provided ad libitum. Animals were fasted overnight before the PET-scan.
A CT-scan was acquired for anatomical correlation.
In vivo characteristics of [^18F]FCA were investigated by a two hour dynamic PET scan with 30 MBq [^18F]FCA, injected intravenously (n = 3). Four and six hours post-injection, a 30 minute static scan was performed.
P-values ≤ 0.05 were considered significant.

[2] = LogD of [^18F]FCA in octanol/PBS pH 7.4; format: physicochemical; conditions: octanol/PBS 50:50 v:v, n = 3
Procedure: 1 MBq of [^18F]FCA was used to spike an octanol/PBS 50:50 v:v pH 7.4 mixture in a test tube. After mixing and centrifugation (5 min; 1100 g), aliquots were taken from each layer and radioactivity was measured in a NaI (Tl) scintillation counter (Capintec; Ramsey, NJ, USA). The LogD value of [^18F]FCA was calculated as the logarithm of the ratio of counts in octanol and PBS.

[3] = tested on: hepatobiliary transport of [^18F]FCA; test: Dynamic PET of [^18F]FCA in control, rifampicin and bosentan treated FVB-mice; conditions: female, FVB, mouse, in vivo
Procedure: Hepatobiliary transport of the tracer was evaluated in female wild-type FVB mice (5 weeks old, Charles River). The animals were housed in accordance with European Ethics Committee guidelines. The animal studies were approved by the Animal Experimental Ethical Committee of Ghent University (ECD 15/69). Food and water was provided ad libitum. Animals were fasted overnight before the PET-scan.
Mice were anesthetized with 1.5 v:v % isoflurane in 100% O2 for the duration of the experiment. An intravenous polyethylene line was placed in the lateral tail vein. The animals were placed in the small animal PET/CT-scanner (FLEX Triumph II small animal PET/CT-scanner; PET field of view: 7.5 cm axial; 1.3 mm spatial resolution; TriFoil Imaging) on a heated bed. A CT-scan was acquired for anatomical correlation.
The interaction of rifampicin (Sigma Aldrich) and bosentan (Activate Scientific) on in vivo [^18F]FCA transport was examined. FVB-mice were divided into 3 different groups (n = 3 per group): rifampicin, bosentan, and a control DMSO vehicle treated group). Both drugs were administered in doses of 100 mg/kg, intra-peritoneal in DMSO:PBS 70:30 v:v (rifampicin) or DMSO (bosentan) 1 hour before the start of the PET-scan. An additional dose (25 mg/kg for rifampicin in DMSO:PBS 40:60 v:v, 50 mg/kg for bosentan in DMSO) was co-injected intravenously with the tracer.
For each scan, 10 MBq of [^18F]FCA was administered intravenously and a 1 hour dynamic scan was started. Immediately after the dynamic scan, 18 MBq [^18F]FDG was injected intravenously. After 20 minutes, a 20 minutes static scan was taken.
PET-data were obtained in list-mode and were iteratively reconstructed (50 iterations) in frames of 15 seconds for the first 10 minutes, followed by 50 frames of 1 minute. ROI’s were drawn manually over liver, gallbladder and intestines using PMod software. A ROI was drawn in the left ventricle on the static [^18F]FDG scan to obtain an image-derived arterial blood input curve. The uptake of [^18F]FCA in arterial blood, liver, gallbladder and intestines was expressed as a % injected dose (% ID) and normalized for the weight of a 20 gram mouse. Time-activity curves (TAC’s) were generated using these values.
AUC, maximum % ID, and time to peak values were determined for the TAC’s with Graphpad Prism v3.00. Differences between 2 groups were determined with the non-parametric Mann-Whitney U test. P-values ≤ 0.05 were considered significant.

[4] = Stability of [^18F]FCA in its PBS formulation; format: physicochemical; conditions: PBS pH 7.4 formulation; room temperature
[5] = tested on: primary mouse hepatocytes; test: Stability/metabolization of [^18F]FCA with primary mouse hepatocytes; conditions: 37°C
[6] = as above; conditions: mouse
[7] = Stability of [^18F]FCA in mouse serum

In the case of C[C@H](CCC(=O)O)[C@H]1CC[C@H]2[C@@H]3[C@H](O)C[C@@H]4C[C@@H]([18F])CC[C@]4(C)[C@H]3C[C@H](O)[C@]12C [[^18F]FCA, 3β-[^18F]Fluorocholic Acid], the “AUC gallbladder & intestines % injected dose” value ([1]; IV, n = 3) is reported as 4105 ± 36 % ID.min, the “Time to peak liver” value ([1]; IV, n = 3) is reported as 4.5 min and 4.5 ± 0.5 min and the “Max % injected dose liver” value ([1]; IV, n = 3, normalized for a 20 g mouse) is reported as 71.8 % ID and 71.8 ± 1.2 % ID. The “uptake in urinary bladder or other organs” value ([1]; PET/CT images up to 6 hours post-injection) was “no uptake in other organs than liver, gallbladder and intestines”, the “radioactivity in gallbladder and intestines” value ([1]; after 1 hour) was 93.3 ± 6.0 % ID and 93.3 % ID and the logD [2] was 1.19 ± 0.1. For the same compound, the “AUC arterial blood % injected dose” value [3] was 1.909 ± 0.572 % ID.min, the “AUC gallbladder & intestines % injected dose” value [3] was 3718 ± 182 % ID.min and the “Time to peak liver” value [3] was 5.5 ± 1.1 min. The “Max % injected dose liver” value ([3]; iv) was 71.2 ± 3.5 % ID, the “time stable in PBS formulation” value [4] was “at least 6 hours” and the “time stable in presence of primary mouse hepatocytes” value [5] was “at least 1 hour”. For the same compound, the “degradation or metabolization products with primary mouse hepatocytes” value ([5]; 5, 10, 30 and 60 minutes) was “metabolically stable; also recorded: No degradation or metabolization products”, the recovery at 5 min, 37 MBq/mL [6] was 100% and the recovery at 10 min, 37 MBq/mL [6] was 100%. The recovery at 30 min, 37 MBq/mL [6] was 100%, the recovery at 60 min, 37 MBq/mL [6] was 100% and the “time stable in presence of mouse serum” value ([7]; 37°C) was “at least 1 hour”. The “degradation or metabolization products in mouse serum” value ([7]; 37°C, 5, 10, 30 and 60 minutes) was “No degradation or metabolization products”, the recovery at 5 min, 37 MBq/mL ([7]; mouse) was 100% and the recovery at 10 min, 37 MBq/mL ([7]; mouse) was 100%. The recovery at 30 min, 37 MBq/mL ([7]; mouse) was 100% and the recovery at 60 min, 37 MBq/mL ([7]; mouse) was 100%.
